In US20060160869A1, “Ubiquitin ligase inhibitors” (Rigel Pharmaceuticals, Inc., priority 2005, published 2006):

What was measured:
MDM2 = MDM2 (Homo sapiens, UniProt Q00987); assay: MDM2 gel-based E3 ligase assay; assay type: biochemical; conditions: compound at 20 μM; result in words
Method: E3 (His-APC11/APC2—“APC”) auto-ubiquitination was measured as described in U.S. patent application Ser. No. 09/826,312 (Publication No. US-2002-0042083-A1), which is incorporated herein in its entirety. Details of the protocol are described below. Activity in the presence of compound was determined relative to a parallel control in which only DMSO is added. The IC50 values were typically determined using 6 or 8 different concentrations of compound, although as few as 2 concentrations may be used to approximate the IC50 values.
Corning 96-well plates (Corning 3650) were blocked with 100 μl of Blocking Buffer for 1 hour at room temperature. The plates were washed 4 times with 225 μl of 1×PBS and 80 μl of the reaction buffer were added that contained 100 ng/well of Flag-ubiquitin. To this, 10 μl of the test compound diluted in DMSO were added. After the test compound was added, 10 μl of E1 (human), E2 (Ubch5c) and APC in Protein Buffer were added to obtain a final concentration of 5 ng/well of E1, 20 ng/well of E2 and 100 ng/well APC. The plates were shaken for 10 minutes and incubated at room temperature for 1 hour. After incubation, the reaction was stopped by adding 25 μl of loading buffer (non-reducing) per well and the plates were heated at 95° C. for 5 minutes. An aliquot of each well was run on a 10% NugePage Gel and analyzed by Western Blot using the antibody mix and Lumino substrate described below. The luminescence was measured by using a BMG luminescence microplate reader.
hMDM2 Plate/Gel is Mouse double minute 2, human homolog. This protein belongs to the E3 RING finger ligase group.

U2OS cells = assay: PAD anti-proliferation assay, U2OS; assay type: cell-based; conditions: Homo sapiens, 48 hours, read-out: PAD/U20S IC50
Method: A549 (ATCC# CCL 185), HeLa (ATCC# CCL 2), HCT116 (ATCC# CCL-247), and H 1299 (ATCC# CRL-5803) cells were maintained in T175 flasks following the ATCC recommended media and handling procedures. Flasks reaching approximately 70% confluency were trypsinized and resuspended in RPMI media (Cell Gro catalog number 10 040 CM) modified to contain 5% FBS, 100 ug/mlPen/Strep (Cell Gro catalog number 30 002 CL), and 0.3 mg/ml L Glutamine (Cell Gro catalog number 25 003 CL). A 20,000 cells/ml solution was made for plating. Cells were plated in black Packard 96 well plates by placing 100 μl per well (2,000 cells per well).
Compounds and additional media were added 24′ hours after cell plating. A compound master plate was created with concentrations 500 times greater than the final concentration added to the cells. All compound testing was done in duplicate using 3 fold dilutions starting with 10 mM. All outside wells (and 4 internal wells) were DMSO controls. Taxol and at least one additional control were run on all plates. Three microliters of the compound master plate were added to deep well blocks containing 750 μl of RPMI media. One hundred microliters were transferred from the compound/media deep well blocks to the plated cells resulting in a 500 fold dilution of the compounds. Cells were grown at 37° C., 5% CO2 for 48 hours.
Cells to be analyzed by photography were fixed and stained. One hundred microliters of media were removed and 100 μl of 2% paraformaldehyde was added to each well. Plates were left on the benchtop for 45 minutes. A staining solution containing 1.55 μl of 1 mg/ml DAPI added to 18.75 ml PBS was warmed for 15 minutes at 37° C. The cells were aspirated prior to washing with 100 μl of PBS. Seventy microliters of PBS were aspirated and 170 μl of the DAPI solution were added to each well of fixed cells. Plates were left at room temperature for one hour then aspirated and washed twice with 100 μl of PBS. The stained cells were left at 4° C. for a minimum of 16 hours before photographic analysis with Array Scan II (Cellomics). Analysis of the photographic images to determine numbers of live cells (proliferation), apoptotic cells and dead cells, were according to the methods described in U.S. Provisional Patent Application Ser. No. 60/406,714, which incorporated herein in its entirety.
Some cell plates were treated with Promega Cell titer Aqueous 1 kit (Promega—VWR catalog number G3580). In this case, 48 hours after the test compound were added, 100 μl of media were removed and 20 μl of cell titer reagent were added to all wells. Plates were incubated at 37° C. for 45 minutes prior to absorbance reads on the Wallac plate reader at 490 nm for 0.1 sec/well. Similar experiments can be carried out using cell lines U2OS and DLD-1.

[1] = system: p53 reporter system in p53 wild-type A549 cell line; assay: p53-dependent transcription reporter assay, A549RE; assay type: cell-based; conditions: p53 +ve cell type; maximal fold induction over DMSO control
Method: Stable lines of U2OS (osteosarcoma; Wild-type p53 positive), HCT116 (colorectal carcinoma; Wild-type p53 positive) and H1299 (lung non-small cell carcinoma; p53 null) carrying p53-dependent transcriptional regulatory element linked to a Luciferase reporter gene and H1299 carrying a 5′-regulatory region of GADD45 linked to Luciferase were used.
Day 2: The compounds or control drugs were diluted in dimethyl sulfoxide (DMSO) and added to the wells to create 6-points/2-fold serial dilution (20, 10, 5, 2.5, 1.25, 0.625 and 0 μM) for each compound. The DMSO concentration was adjusted to 0.2% in all wells.
Day 3: Twenty to 24 hours after compound addition, cells were twice washed with PBS and lysed with Glo-lysis buffer (100 μl/well, Promega; Cat#E2661). Plates were subjected to gentle agitation on a table-top shaker for 5 minutes at room temperature. Fifty μl of lysate was transferred to an assay plate to test for luciferase activity and mixed with 2× assay buffer (Promega; Cat# E1483). The reaction mixture was left at room temperature for 2 minutes and then luminescence was measure by a luminometer (Victor™, 1420 Multilabel Counter, Wallac).
Data analysis was done on Excel software (Microsoft). Values in Table 4 represent maximal fold induction over negative control (DMSO only) and are the mean of at least duplicate experiments.
A549RE is a p53 wild-type A549 cell line containing p53 reporter system. If the compound acts against MDM2, p53 activity increases.

MDM2, sequence (Q00987 whole entry): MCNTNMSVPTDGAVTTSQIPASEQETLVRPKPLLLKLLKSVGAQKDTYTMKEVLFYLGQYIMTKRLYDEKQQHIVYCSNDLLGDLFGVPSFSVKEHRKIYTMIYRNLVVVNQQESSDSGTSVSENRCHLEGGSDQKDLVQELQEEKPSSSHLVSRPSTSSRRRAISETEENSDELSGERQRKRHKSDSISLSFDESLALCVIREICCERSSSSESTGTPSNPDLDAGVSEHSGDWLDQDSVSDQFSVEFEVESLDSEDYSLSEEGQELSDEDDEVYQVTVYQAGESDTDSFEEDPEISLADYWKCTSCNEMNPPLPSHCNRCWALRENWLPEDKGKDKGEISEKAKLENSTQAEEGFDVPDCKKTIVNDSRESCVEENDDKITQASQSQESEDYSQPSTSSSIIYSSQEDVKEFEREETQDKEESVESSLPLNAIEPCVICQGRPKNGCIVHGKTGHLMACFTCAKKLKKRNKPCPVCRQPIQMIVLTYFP

Structure (SMILES) | MDM2 Gel 20 μM (MDM2) | IC50 (U2OS cells) [µM] | Fold Induction of p53 activity, A549RE [1]
O=C(c1ccc(CN(CCOc2ccccc2)c2nc(-c3ccc(Cl)c(Cl)c3)cs2)cc1)N1CCNCC1 [compound 360] | Potent | 1 to 20 | a (a means 2 or less)
COc1cccc(-c2csc(N(CCOc3ccccc3)Cc3ccc(C(=O)N4CCNCC4)cc3)n2)c1 [compound 352] | Weak | 1 to 20 | a (a means 2 or less)
COc1cccc(-c2csc(N(Cc3ccc(C(=O)N4CCNCC4)cc3)Cc3cccc(OC(F)(F)F)c3)n2)c1 [compound 351] | Active | 1 to 20 | a (a means 2 or less)
COc1cccc(CN(Cc2ccc(C(=O)N3CCNCC3)cc2)c2nc(-c3ccc(Br)cc3)cs2)c1OC [compound 353] | Active | 1 to 20 | a (a means 2 or less)
O=C(c1ccc(CN(Cc2cccc(OC(F)(F)F)c2)c2nc(-c3ccccc3)cs2)cc1)N1CCNCC1 [compound 275] | Weak | 1 to 20 | a (a means 2 or less)
O=C(c1ccc(CN(Cc2cccc(OC(F)(F)F)c2)c2nc(-c3ccc4ccccc4c3)cs2)cc1)N1CCNCC1 [compound 282, 4-(2-naphthyl)-N-[4-(piperazin-1-ylcarbonyl)benzyl]-N-[3-(trifluoromethoxy)benzyl]-1,3-thiazol-2-amine] | Potent | 1 to 20 | a (a means 2 or less)
